Laboratory results as given in patent US20250381163A1, “Chelating Agents for Use in Cancer Therapy” (priority 2022, published 2025).
“Also recorded” adds a separate entry of the source.

Legend:
[1] = system: Beas-2B cells; assay: Resazurin cell survival assay, metal-induced chemoresistance and chelators; assay type: cell-based; conditions: for Reversal of metal-induced chemoresistance to doxorubicin, non-saturating chelator dose: DMPS 40 μM, EDTA 20 μM, FIG. 5
Description: (§1) Resazurin cell survival assays were used to determine cell survival upon chemotherapeutic and chelator challenge. 2×10^3 cells were seeded in 100 μl in 96 well plates. 24 hrs later medium was replaced with 90 μl of metal mixtures or control medium for another 24 hrs. Next a combination of chelators and chemotherapy as indicated in the figures was prepared and added as an additional 10 μl to the cells. Cells were then incubated for 72 hr (Beas-2B) or 96 hr (A549 and MCF7). A stock solution of resazurin (Sigma) was made as 880 μM in PBS adjusted to pH 7.8/filtered 0.2 μm and kept for 6 months at 4° C. Medium was replaced with 75 μl of resazurin solution (final concentration 44 μM). Cells were incubated at 37° C. for 3-4 hrs and fluorescence emission was measured at 583 nm with excitation at 555 nm using a spectrophotometer (Beckman). To test the effects of metals on doxorubicin directly, doxorubicin was incubated with metals in solution 24 hrs as a 10× solution, prior to adding to cells, whereas control cells were incubated in metals as described before.
IC50 values were calculated using Graphpad Prism. Error bars represent standard deviation of triplicate measurements.

[2] = system: A549 lung cancer cells; assay: as above; assay type: cell-based; design: dose or concentration left out as unconfirmed; conditions: FIG. 3C
Description: as §1

[3] = system: MCF7 breast cancer cells; assay: as above; assay type: cell-based; design: dose or concentration left out as unconfirmed; conditions: FIG. 3B
Description: as §1

[4] = system: A549 p53 KO cells; assay: Resazurin cell survival assay in p53 KO clone; assay type: cell-based; conditions: p53 KO clone of A549; DMPS (150 μM); doxorubicin; FIG. 3D
Description: A549, MCF7 and Beas-2B cells were obtained from ATCC (https://www.atcc.org). Cells were maintained in DMEM high Glucose (Invitrogen) and 10% FCS (Gibco) at 37° C. and 5% CO2. A549 p53 KO cells were generated using a CRISPR p53 KO construct (pLV-U6g-EPCG with target sequence TCCATTGCTTGG GACGGCAAGG, Sigma). Cell lines were selected for GFP expression using FACS sorting followed by clonal selection in neomycin (600 ng/ml, Sigma).
as §1, with “To test the effects of metals on doxorubicin directly, doxorubicin was incubated with metals in solution 24 hrs as a 10× solution, prior to adding to cells, whereas control cells were incubated in metals as described before.” left out

[5] = system: H2170 cells; assay: Cell survival assay, metal exposure and chelation treatment; assay type: cell-based; conditions: H2170 pre-treated with metals 1:128, then DMPS and doxorubicin for 72 hrs; FIG. 16
Description: as §1
Overall, the methods disclosed in the first example were used in the second example as well. […]
(§2) Hep3B and H2177 cells were obtained from ATCC and were maintained in DMEM high Glucose (Invitrogen) and 10% FCS (Gibco) at 37° C. and 5% CO2. […] Cells were subsequently counted and added to 96 well plates for survival assays as previously described. […]

[6] = system: p53; assay: p53 folding status in cells (immunoprecipitation with folding antibodies / western blot); assay type: cell-based; conditions: Beas-2B cells incubated with metals in presence or absence of chelator; FIG. 20, 21
Description: (§3) Cells were seeded in 6 well plates at 30% cell density. 24 hrs later, medium was replaced with the metal mixtures as indicated. Cells were incubated for 24 hrs and lysed with 100 μl NP-40 lysis buffer (100 mM NaCl 100 mM Tris pH8, 1% NP-40) for 15 min on ice. Cell pellets were discarded in centrifugation (10 min max) and 10% of input was taken for western blot and mixed with 4×SB. The remaining lysate was subjected to immunoprecipitation with p53 Ab240 Ab (1 ul per condition) using 30 μl NP-40 buffer washed goat-anti-mouse magnetic Dynabeads (Thermo Fisher). Lysates and beads were tumbled at 4° C. for 2 hrs and washed 3× with NO-40 buffer. Beads were taken up in 2×SB and together with inputs denatured at 95° C. in a heat block. 8% SDS page gels were used to run all of the samples on western blot. Gels were transferred on nitrocellulose membrane, blocked with milk (TBS-Tween) for 1 hr tumbling and incubated in p53 DO-1 (Santa Cruz Ab, 1:2000) ON at 4° C. The membrane was washed 3× with TBS-tween and secondary Ab (anti-mouse 700, Li-Cor) was used 1:10.000 to incubate the blot for 1 hr at room temperature. The blot was washed with TBS-tween 3× and the signal was measured in a Li-Cor Odyssey. Quantification was measured in the software of Li-Cor and plotted corrected for input levels of each sample.

[7] = system: BxPC-3 cells; assay: Cell survival assay, metal exposure and chelation treatment; assay type: cell-based; conditions: BxPC3 pre-treated with metals 1:128; for Reversal of metal-induced chemoresistance to 5-FU: 150 μM chelator and 5-FU for 72 hrs, FIG. 17; for Effect of chelator on resistance/survival with nab-paclitaxel: 150 μM chelator and nab-paclitaxel for 72 hrs, FIG. 18
Description: as §1
Overall, the methods disclosed in the first example were used in the second example as well.

[8] = system: p53; assay type: biochemical; conditions: Beas-2B lysates with metals 30 min, then chelator 1 hr; naïve and loaded lysates; FIG. 23
[9] = system: 158 mutant p53; assay: p53 folding in transfected Hep3B cells; assay type: cell-based; conditions: Hep3B transfected with 158 mutant p53; metals followed by miaDMSA; FIG. 22
Description: as §3, with “The membrane was washed 3× with TBS-tween and secondary Ab (anti-mouse 700, Li-Cor) was used 1:10.000 to incubate the blot for 1 hr at room temperature.” left out
as §2

[10] = system: WT p53; assay: p53 folding in transfected Hep3B cells; assay type: cell-based; conditions: Hep3B transfected with WT p53; metals followed by miaDMSA; FIG. 22
Description: as §3, with “The membrane was washed 3× with TBS-tween and secondary Ab (anti-mouse 700, Li-Cor) was used 1:10.000 to incubate the blot for 1 hr at room temperature.” left out
as §2

[11] = metal-loaded Beas-2B, DMPS 150 μM, EDTA 75 μM (equivalent chelation capacity), alone or combined, FIG. 4
[12] = Beas-2B pre-treated with metals 1:128, then chelator and doxorubicin for 72 hrs, FIG. 14, 15

Row | Compound | Reversal of metal-induced chemoresistance to doxorubicin, non-saturating chelator dose ([1]; alone or combined) | Reversal of metal-induced chemoresistance to doxorubicin [1, 11] | Prevention of metal-induced unfolding of p53 [6] | Reversal of metal-induced chemoresistance to doxorubicin [1, 12] | Reversal of metal-induced chemoresistance to 5-FU [7] | Effect of chelator on resistance/survival with nab-paclitaxel [7] | Refolding of unfolded p53 [8] | also measured
1 | O=S(=O)(O)CC(S)CS (centres unmarked) [DMPS, 2,3-dimercapto-1-propanesulfonic acid] | not able to restore chemosensitivity substantially | almost completely restored; also recorded: reversed chemoresistance completely | prevents unfolding | – | – | – | – | Restoration of sensitivity to doxorubicin (reversal of metal-induced chemoresistance) ([1]; Beas2B cells primed with 1:128 and 1:256 metals, DMPS 150 μM, FIG. 3A): completely restored; Reversal of metal-induced chemoresistance to doxorubicin [2]: reversed the chemoresistance completely; Reversal of metal-induced chemoresistance to doxorubicin [3]: reversed the chemoresistance completely; Metal induced chemoresistance and its reversal by chelator [4]: less pronounced than in native A549 cells; Reversal of metal-induced chemoresistance to doxorubicin [5]: only partially reversed
2 | O=C(O)C(S)C(S)C(=O)O (centres unmarked) [DMSA, 2,3-dimercaptosuccinic acid] | – | – | prevents unfolding | only partially reversed | reversed | reduce survivability | – | –
3 | O=C(O)CN(CCN(CC(=O)O)CC(=O)O)CC(=O)O [EDTA, ethylenediaminetetraacetic acid] | not able to restore chemosensitivity substantially | able to restore chemosensitivity although not to the extent as seen for DMPS; also recorded: reversed the resistance only partially | – | – | – | – | clearly able to refold some of the p53 | –
4 | COc1cccc2c1C(=O)c1c(O)c3c(c(O)c1C2=O)C[C@@](O)(C(=O)CO)C[C@@H]3O[C@H]1C[C@H](N)[C@H](O)[C@H](C)O1 [doxorubicin] | – | – | – | – | – | – | – | IC50 of doxorubicin in metal-loaded cells relative to cells without added metals ([1]; Beas-2B loaded with metals (1:128), FIG. 6): more than 10 times; IC50 of doxorubicin ([1]; Beas-2B without added metals, FIG. 6): low
5 | CC(C)CCOC(=O)[C@@H](S)[C@@H](S)C(=O)O [miaDMSA, monoisoamylDMSA] | – | – | – | highly potent chelator; also recorded: completely reversed | reversed | reduce survivability; also recorded: reduction of resistance | clearly able to refold some of the p53 | Prevention of metal-induced unfolding of p53 [9]: prevented or reduced; Prevention of metal-induced unfolding of p53 [10]: prevented or reduced
